Source: a melting point compilation (Tetko et al.; mined from patent text by program, amines drawn as free bases though some values may be those of a salt)

| melting point [°C] | SMILES |
| --- | --- |
| 136 to 138 | C=C1N(c2ccccc2)C(=O)OC12CCN(CCC=C(c1ccc(F)cc1)c1ccc(F)cc1)CC2 |
| 150 to 151 | O=C(COc1ccc(C(=O)CN2CCN(c3ccncc3)CC2)cc1)NCc1ccccc1 |
| 145 to 147 | O=C(Nc1ccc(-n2nc(C(F)(F)F)cc2C(F)(F)F)cc1)c1cccnc1Cl |
| 146 to 148 | Cc1cnc(C2(CCCCN3CCC(N4Cc5ccccc5C4=O)CC3)c3ccccc3-c3ccccc32)s1 |
| 185 to 187 | Cc1cc(C)cc(C(=O)c2c(C(C)C)c(=O)[nH]c(=O)n2Cc2cc(F)nc(F)c2)c1 |
| 61 to 64 | CCN(CCO)c1ccc(C(=O)OC)cc1 |
| 221 to 223 | COC(=O)Nc1cn2ccc(Sc3ccccc3)cc2n1 |
| 180 to 184 | Cn1ncc2c3[nH]ncc3ccc21 |
| 205 to 207 | COC1NC(=O)CC2CC1c1ccccc12 (configuration not stated) |
| 190 to 192 | COc1cc2c(cc1OC)-c1cc(=O)n(C(C)C)c(=O)n1CC2 |
| 90 to 91 | COc1ccc(C=Nc2cc(OC)c(OC)c(OC)c2)cc1O[Si](C)(C)C(C)(C)C |
| 51 to 54 | CC(C)C(=O)N1CCC(NC(=O)c2ccccc2Oc2ccc(Cl)cc2Cl)CC1 |
| 184 to 186 | Cc1cc(-c2cccc(NC(=O)C3CC3)c2)n2ncc(C(=O)c3cccs3)c2n1 |
| 56 to 59 | COc1ccc(C(=O)c2cccc(C(F)(F)F)c2)cc1C |
| 196 | N#CC(=CC=Cc1ccccc1)C(=O)O |
| 194 to 195 | CCn1cc(C2(c3cccc(Br)c3)N=C(N)N(C)C2=O)cc1C=O (configuration not stated) |
| 175 to 178 | C=CCc1ccc(C2=NNC(=O)CC2)cc1O |
| 300 | COc1ccc2c(=O)c(C#N)c(N)oc2c1 |
| 224 to 225 | Nc1nc(N)c2cc(Cc3ccc(Cl)cc3)ccc2n1 |
| 202 | O=C1C2=C(SCCO2)C(O)N1c1ccc(Cl)cn1 (configuration not stated) |
| 88.5 to 89.5 | CCCc1c(OCCCOc2ccc([C@H]3OC(=O)C[C@H]3C)cc2)ccc(C(C)=O)c1O |
| 98 to 101 | C=CCNc1nc(NC(=O)N2CCCC2)c2scc(C)c2n1 |
| 134 to 135 | C#CCC#CCON1C(=O)c2ccccc2C1=O |
| 296 to 297 | O=c1c2c(nc3n1CCc1c-3[nH]c3cc(Cl)cc(Cl)c13)CCCC2 |

| melting point [°C] | SMILES |
| --- | --- |
| 202 to 204 | COc1cc(C#Cc2cnc(N)nc2N)cc(OC)c1OC |
| 77 to 78 | Cn1c(C(F)(F)F)ccc(-c2cc(S(=O)(=O)Cl)c(Cl)cc2F)c1=O |
| 67 to 68 | CC(C)c1nn(-c2ccc(C(F)(F)F)cn2)cc1CCCCO |
| 150 to 156 | CCc1ccccc1-c1cccc(-n2cnc(-c3nc(C)no3)c2)c1 |
| 99 to 101 | CNC(=S)NCCCSc1nnnn1C |
| 232 | C[C@@H](Nc1ncnc2cc(N)ncc12)c1ccccc1 |
| 143 | CCCNCC(=O)Nc1ccc2c(c1)C(=O)c1cc(NC(=O)CNCCC)ccc1C2=O |
| 192 to 196 | Cc1[nH]c2cc(C(=O)c3ccccc3)ccc2c1C=O |
| 135 | COc1c(C)cc(N2CCN(c3ccc([N+](=O)[O-])cc3)CC2)cc1C |
| 142 to 145 | COc1ccc(S(=O)(=O)C2(C(=O)O)CCN(CC=C(C)C)CC2)cc1 |
| > 240 | Cn1cc(C(N)=O)c(=O)c2ccc(Cl)cc21 |
| 189 to 190 | CC(C)n1nc(-c2cc(-n3cccc3)cnc2-c2ccccc2)ccc1=O |
| 210 | Nc1ccc2nc(-c3ccccc3)oc2n1 |
| 258 to 260 | N#CCc1ccc(-c2coc3cc(O)c(O)cc3c2=O)cc1 |
| 115 | CCOc1ccc2c(c1)n(C1CCCCC1)c(=O)n2Cc1ccc(-n2cccc2)cc1OC |
| 225 to 227 | COc1ccc(-c2cnc3cc4cn(Cc5ccccc5)nc4cc3n2)cc1F |
| 280 | Nc1cc(-n2cc(C(=O)O)c(=O)c3cc(F)c(N4CC(N)C4)c(Cl)c32)ncc1F |
| 97 to 100 | Cc1ccc(-n2c(=O)[nH]c(C(F)(F)F)c(F)c2=O)cc1C(=O)OC(C)C |
| 112 to 114 | CC1=C(O)C(=O)C(C)(C(C)O)O1 (configuration not stated) |
| 107 to 109 | COC(=O)c1cc(OC)ccc1N(CC#N)c1ccccc1 |
| 117 to 119 | CCOC(=O)C=Cc1ccc2c(c1)CC(CNC(=O)OC(C)(C)C)CC2 (configuration not stated) |
| 256 to 257 | Cn1cnc(S(=O)(=O)N2CCC3(CC2)CSC2=C(O3)c3ccccc3C(=O)C2=O)c1 |
| > 280 | NC(=O)c1c(I)cc(I)c(CCC(=O)O)c1I |
| 139 to 141 | N#CNC(=NCCN1CCC(C(=O)c2ccc(F)cc2)CC1)N1CCCCC1 |

| melting point [°C] | SMILES |
| --- | --- |
| 183 to 185 | COc1cc2c(cc1Nc1ncc(Cl)c(Nc3ccccc3S(=O)(=O)N(C)C)n1)CCN(CC(C)O)CC2 (configuration not stated) |
| 216 to 217 | COc1cc2c(Nc3ccc(Cl)cc3F)ncnc2cc1OCCCC(=O)N1CCOCC1 |
| 66 to 68 | CCOC(=O)c1[nH]c(C(=O)OCC)c(C)c1C |
| 198 to 200 | COc1cnc(CSc2nc3cc4c(cc3[nH]2)OCO4)cc1OC |
| 86 to 87 | COC(=O)c1cccc(COC(OC(C)=O)C(=O)c2ccccc2)c1 (configuration not stated) |
| 168 to 170 | CC(C)c1cc(Cl)cc(C(C)C)c1NC(=O)NS(=O)(=O)c1cc(C2(C)OCCO2)ccc1F |
| 164 to 165 | Cc1nc(N)c2nc(CO)n(Cc3cc(-c4ccc(F)cc4)no3)c2c1C |
| 128 to 130 | CC[C@H](C1CC1)n1cc(Cl)nc(N2CCc3cc(OC)c(F)c(Cl)c32)c1=O |
| 200 to 201 | CN1CCN(Cc2cnc(S)n2Cc2cc(F)cc(F)c2)CC1 |
| 127 to 128 | O=C(Nc1ccc(N2CCN(C(=O)C(O)c3ccccc3Cl)CC2)nc1)Nc1ccccc1F (configuration not stated) |
| 207 to 208 | Cc1ccc2ccc(NCc3c(C)c(CNc4ccc5ccc(C)nc5n4)c(C)c(CNc4ccc5ccc(C)nc5n4)c3C)nc2n1 |
| 204 to 205 | COC(=O)c1cccc2c1[nH]c1c3cc(Br)ccc3oc21 |
| 98 to 100 | COC(=O)c1c(C)nc2c(c1N)c1ccccc1n2C |
| 181 to 184 | Cc1noc(NS(=O)(=O)c2cc(S(=O)(=O)c3ccccc3)cs2)c1Br |
| 117 to 120 | CCCC(=O)C(=CNc1ccc(OCC)c(C)n1)C(=O)OCC |
| 95 to 98 | CN1C(=O)c2ccccc2N(N=O)c2ccccc21 |
| 80 to 88 | CCCCCCCCCCCCn1nnnc1NC(=O)Nc1c(C(C)C)cccc1C(C)C |
| 187 to 190 | COc1ccc(-c2ccc(C(=O)Nc3cc4ncc(CN5CCCC5)cc4cc3C)c(F)c2)cc1 |
| 163 to 164 | CC(=O)OC(c1nc(C)c(C)s1)(c1nc(C)c(C)s1)C(F)(F)F |
| 237 to 242 | Nc1cc(-n2cc(C(=O)O)c(=O)c3cc(F)c(F)c(Cl)c32)c(Cl)cc1F |
| 140 to 141 | O=C(CNC(=O)c1ccc(F)cc1)c1ccsc1 |
| 192 to 194 | COc1cc2c(cc1-n1cccc1)C(Nc1ccc(F)c(Cl)c1)=C(C#N)CN2 |
| 175 | N#Cc1cc(C(F)(F)F)cc(C(=O)Nc2ccc(Cl)c(Cl)c2)c1N1CCCCC1 |
| 157 to 158 | Clc1cccc(-c2nc(Cl)c3ccccc3n2)c1 |

| melting point [°C] | SMILES |
| --- | --- |
| 100 to 102 | CCc1c(-c2ccncn2)ssc1=S |
| 135 to 136 | N#Cc1ccc(-c2ccc(C(F)(F)F)cn2)cc1SCC1CC1 |
| 136 to 137 | CC1=C(C(=O)c2ccc(Cl)cc2)C(=O)C2C=CC=CC2C1=O (configuration not stated) |
| 79 to 80 | C=CCOC(=O)c1ccc(C(=O)SCc2ccc3c(c2)C(C)(C)CCC3(C)C)cc1 |
| 154 to 155 | CC(CSC(=O)c1ccccc1)C(=O)N1Cc2ccccc2CC1C(=O)O (configuration not stated) |
| 50 to 52 | COC(=O)CC1(OCc2ccccc2)C=CC=C(c2ccccc2)C1 (configuration not stated) |
| 126 to 128 | CC(=O)C1C(=O)c2cccc(N)c2C1=O (configuration not stated) |
| 131 to 132 | COC1([N+](=O)[O-])C=CC(C=Cc2ccccc2)=CC1 (configuration not stated) |
| 114 to 119 | COc1cc(OC(c2ccccc2)c2ccccc2)ccc1/C=C/c1cc(/C=C/c2ccc3cc[nH]c3c2)[nH]n1 |
| 156 to 160 | CNC(=O)c1ccc(Br)c2nsnc12 |
| > 220 | CONC1=NS(=O)(=O)c2cc(Cl)ccc2N1 |
| 64 to 66 | O=C(N[C@@H](Cc1ccccc1)C[C@H](O)[C@H](Cc1ccccc1)NC(=O)OCc1cscn1)OCc1cscn1 |
| 122 to 124 | CNS(=O)(=O)CCc1ccc2[nH]ccc2c1 |
| 138 to 140 | CC(C)CC(NC(=O)N1CCc2cc(S(=O)(=O)N3CCN(c4cccc(Cl)c4)CC3)ccc21)C(=O)O (configuration not stated) |
| 141 to 143 | CC#CCC(CC#CC)(C(=O)O)S(=O)(=O)c1ccc(OC)cc1 |
| 130 to 132 | CCCCCCC(=O)NCc1cccc2c1C(=O)N(C1CCC(=O)NC1=O)C2=O (configuration not stated) |
| 161 to 164 | CCOC(=O)c1ccc2cc(Cl)ccn2c1=O |
| 188 to 190 | CCOc1ccc(F)cc1C1OC(=O)NC1=O (configuration not stated) |
| 189 | COc1ccc(S(=O)(=O)n2c(CCCC(=O)O)cc3nc(Cl)ccc32)cc1 |
| 300 to 301 | NC(=O)c1cccc2c1[nH]c1c3cc(Br)ccc3oc21 |
| 229 to 230 | CC(C)(O)c1ccoc1C(=O)c1[nH]c2cc(Cl)ccc2c1CC(=O)O |
| 66.3 to 66.5 | CC(=O)c1oc2ccc(C)cc2c1C |
| 206 to 208 | N#Cc1cccc(C(=O)Nc2ccc(-n3nc(C(F)(F)F)cc3C(F)(F)F)nc2)c1 |
| 138 to 140 | CCCCCCCCCCCCc1nnn(C(CCCCCCCCCCCC)C(=O)Nc2c(OC)cc(OC)cc2OC)n1 (configuration not stated) |

| SMILES | melting point [°C] |
| --- | --- |
| COc1ccc(OC)c2c1C[C@@H](O)[C@H](NC(C)C)C2 (relative stereo) | 144 to 145 |
| Cc1c(C2CCC(c3ccccc3)(N(C)C)CC2)[nH]c2ccc(OC(F)(F)F)cc12 (configuration not stated) | 219 to 221 |
| O=C1CC2c3cc(F)ccc3CCN2C2CCCCC12 (configuration not stated) | 130 to 136 |
| CCOP(=O)(OCC)Oc1cc2c(c3ccccc13)Nc1ccccc1S2 | 162 to 163 |
| Brc1ccc2c(c1)C(c1ccccn1)=CCc1nncn1-2 | 219 |
| CN1CCN(c2cccc3ccc(N)cc23)CC1 | 157 to 159 |
